Assay results: patent US20250041429A1, “COMPOUND HAVING BTK PROTEIN DEGRADATION ACTIVITY, AND MEDICAL USES THEREOF” (UBIX THERAPEUTICS, INC., priority 2021, published 2025)
Each block holds one compound with its values, some of them ahead of it.

Target: T1, BTK protein (Homo sapiens, UniProt Q06187)
T1 construct: endogenous in cells; host or cells: TMD-8 cells
Assay: Measurement of BTK protein degradation ability in TMD-8 cells (Western blotting)
Format: cell-based
Details: harvested after 24 hours; for BTK degradation (%) 1 nM: compound 1 nM; for BTK degradation (%) 10 nM: compound 10 nM; for BTK degradation (%) 100 nM: compound 100 nM
How it was run: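 BTK levels were measured by immunoblotting of equal-protein RIPA lysates, normalized to GAPDH or β-actin, with chemiluminescent or infrared detection. Lysates came from TMD-8 cells exposed to compound for 24 h at final concentrations of 0.1, 1, 10 μM or 0.0001–0.1 μM, against a DMSO control.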

T1 sequence (Q06187 whole entry): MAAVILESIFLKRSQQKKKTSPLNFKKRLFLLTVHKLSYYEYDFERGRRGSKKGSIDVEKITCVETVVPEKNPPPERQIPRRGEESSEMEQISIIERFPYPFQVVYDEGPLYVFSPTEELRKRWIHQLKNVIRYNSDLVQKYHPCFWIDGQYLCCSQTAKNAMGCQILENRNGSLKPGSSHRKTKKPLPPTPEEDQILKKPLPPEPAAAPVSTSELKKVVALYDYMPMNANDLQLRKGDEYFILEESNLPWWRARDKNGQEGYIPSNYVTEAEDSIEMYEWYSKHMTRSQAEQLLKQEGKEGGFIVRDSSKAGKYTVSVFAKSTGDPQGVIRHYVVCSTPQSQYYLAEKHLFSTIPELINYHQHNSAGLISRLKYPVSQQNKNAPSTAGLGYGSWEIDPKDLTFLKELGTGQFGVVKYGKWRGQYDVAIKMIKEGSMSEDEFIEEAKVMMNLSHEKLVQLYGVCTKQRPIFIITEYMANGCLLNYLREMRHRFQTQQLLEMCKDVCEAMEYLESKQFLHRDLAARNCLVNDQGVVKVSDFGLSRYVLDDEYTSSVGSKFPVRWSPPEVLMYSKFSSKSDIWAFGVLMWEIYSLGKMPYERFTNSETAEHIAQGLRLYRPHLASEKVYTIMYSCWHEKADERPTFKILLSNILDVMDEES

Structure (SMILES): Cc1cc(-c2ccnc(Nc3cnn(C4CCN(CC5CN(c6ccc7c(c6)C(=O)N(C6CCC(=O)NC6=O)C7=O)C5)CC4)c3)n2)ccc1CNC(=O)c1cnn(C(C)C)c1 (stereo not drawn) [Example 36, N-(4-(2-((1-(1-((1-(2-(2,6-dioxopiperidin-3-yl)-1,3-dioxoisoindolin-5-yl)azetidin-3-yl)methyl)piperidin-4-yl)-1H-pyrazol-4-yl)amino)pyrimidin-4-yl)-2-methylbenzyl)-1-isopropyl-1H-pyrazole-4-carboxamide]
BTK degradation (%) 1 nM: 60% | BTK degradation (%) 10 nM: 94% | BTK degradation (%) 100 nM: 99%

Structure (SMILES): Cc1cc(-c2ccnc(Nc3ccc(N4CCN(CC5CCN(c6ccc(NC7CCC(=O)NC7=O)cc6)CC5)CC4)cc3)n2)ccc1CNC(=O)N1CC(OC(C)C)C1 (stereo not drawn) [Example 55, N-(4-(2-((4-(4-((1-(4-((2,6-dioxopiperidin-3-yl)amino)phenyl)piperidin-4-yl)methyl)piperazin-1-yl)phenyl)amino)pyrimidin-4-yl)-2-methylbenzyl)-3-isopropoxyazetidine-1-carboxamide]
BTK degradation (%) 1 nM: 37.7% | BTK degradation (%) 10 nM: 94.7% | BTK degradation (%) 100 nM: 99.7%

Structure (SMILES): Cc1cc(-c2ccnc(Nc3ccc(C4CCN(CC5CN(c6ccc7c(c6)C(=O)N(C6CCC(=O)NC6=O)C7=O)C5)CC4)nc3)n2)ccc1CNC(=O)N1CC(OC(C)C)C1 (stereo not drawn) [Example 20, N-(4-(2-((6-(1-((1-(2-(2,6-dioxopiperidin-3-yl)-1,3-dioxoisoindolin-5-yl)azetidin-3-yl)methyl)piperidin-4-yl)pyridin-3-yl)amino)pyrimidin-4-yl)-2-methylbenzyl)-3-isopropoxyazetidine-1-carboxamide]
BTK degradation (%) 1 nM: 49% | BTK degradation (%) 10 nM: 92% | BTK degradation (%) 100 nM: 98.5%

Structure (SMILES): Cc1cc(-c2ccnc(Nc3ccc(N4CCN(CC5CCN(c6cc7c(cc6F)C(=O)N(C6CCC(=O)NC6=O)C7=O)CC5)CC4)cc3)n2)ccc1CNC(=O)N1CC(OC(C)C)C1 (stereo not drawn) [Example 12, N-(4-(2-((4-(4-((1-(2-(2,6-dioxopiperidin-3-yl)-6-fluoro-1,3-dioxoisoindolin-5-yl)piperidin-4-yl)methyl)piperazin-1-yl)phenyl)amino)pyrimidin-4-yl)-2-methylbenzyl)-3-isopropoxyazetidine-1-carboxamide]
BTK degradation (%) 1 nM: 23.5% | BTK degradation (%) 10 nM: 84.5% | BTK degradation (%) 100 nM: 98.5%

Structure (SMILES): Cc1cc(-c2ccnc(Nc3ccc(N4CCN(CC5CN(c6cc7c(cc6F)C(=O)N(C6CCC(=O)NC6=O)C7=O)C5)CC4)cc3)n2)ccc1CNC(=O)N1CC(OC(C)C)C1 (stereo not drawn) [Example 13, N-(4-(2-((4-(4-((1-(2-(2,6-dioxopiperidin-3-yl)-6-fluoro-1,3-dioxoisoindolin-5-yl)azetidin-3-yl)methyl)piperazin-1-yl)phenyl)amino)pyrimidin-4-yl)-2-methylbenzyl)-3-isopropoxyazetidine-1-carboxamide]
BTK degradation (%) 1 nM: 38% | BTK degradation (%) 10 nM: 91% | BTK degradation (%) 100 nM: 99%

Structure (SMILES): Cc1cc(-c2ccnc(Nc3ccc(N4CCC(CN5CCC(c6ccc(NC7CCC(=O)NC7=O)cn6)CC5)CC4)cc3)n2)ccc1CNC(=O)N1CC(OC(C)C)C1 (stereo not drawn) [Example 126, N-(4-(2-((4-(4-((4-(5-((2,6-dioxopiperidin-3-yl)amino)pyridin-2-yl)piperidin-1-yl)methyl)piperidin-1-yl)phenyl)amino)pyrimidin-4-yl)-2-methylbenzyl)-3-isopropoxyazetidine-1-carboxamide]
BTK degradation (%) 1 nM: 39.7% | BTK degradation (%) 10 nM: 95.7% | BTK degradation (%) 100 nM: 100.0%

Structure (SMILES): Cc1cc(-c2ccnc(Nc3cnn(C4CCN(CC5CN(c6ccc7c(c6)C(=O)N(C6CCC(=O)NC6=O)C7=O)C5)CC4)c3)n2)ccc1CNC(=O)N1CC(OC(C)C)C1 (stereo not drawn) [Example 22, N-(4-(2-((1-(1-((1-(2-(2,6-dioxopiperidin-3-yl)-1,3-dioxoisoindolin-5-yl)azetidin-3-yl)methyl)piperidin-4-yl)-1H-pyrazol-4-yl)amino)pyrimidin-4-yl)-2-methylbenzyl)-3-isopropoxyazetidine-1-carboxamide]
BTK degradation (%) 1 nM: 75% | BTK degradation (%) 10 nM: 97% | BTK degradation (%) 100 nM: 99%

Structure (SMILES): Cc1cc(-c2ccnc(Nc3ccc(N4CCN(C5CCN(C(=O)c6cccc(NC7CCC(=O)NC7=O)c6)CC5)CC4)cc3)n2)ccc1CNC(=O)N1CC(OC(C)C)C1 (stereo not drawn) [Example 103, N-(4-(2-((4-(4-(1-(3-((2,6-dioxopiperidin-3-yl)amino)benzoyl)piperidin-4-yl)piperazin-1-yl)phenyl)amino)pyrimidin-4-yl)-2-methylbenzyl)-3-isopropoxyazetidine-1-carboxamide]
BTK degradation (%) 1 nM: −12.5% | BTK degradation (%) 10 nM: 69.0% | BTK degradation (%) 100 nM: 97.0%

Other lines, results leading:

BTK degradation (%) 1 nM: 65.0% | BTK degradation (%) 10 nM: 97.0% | BTK degradation (%) 100 nM: 99.5%
Structure (SMILES): Cc1cc(-c2ccnc(Nc3ccc(N4CCN(CC5CCN(c6cccc(N7CCC(=O)NC7=O)c6)CC5)CC4)cc3)n2)ccc1CNC(=O)c1cnn(C(C)(C)C)c1 [Example 81, 1-(tert-butyl)-N-(4-(2-((4-(4-((1-(3-(2,4-dioxotetrahydropyrimidin-1 (2H)-yl)phenyl)piperidin-4-yl)methyl)piperazin-1-yl)phenyl)amino)pyrimidin-4-yl)-2-methylbenzyl)-1H-pyrazole-4-carboxamide]

BTK degradation (%) 1 nM: 71.0% | BTK degradation (%) 10 nM: 95.5% | BTK degradation (%) 100 nM: 98.5%
Structure (SMILES): Cc1cc(-c2ccnc(Nc3ccc(N4CCN(CC5CN(C(=O)c6cccc(NC7CCC(=O)NC7=O)c6)C5)CC4)cc3)n2)ccc1CNC(=O)c1cn(C(C)(C)C)nn1 (stereo not drawn) [Example 98, 1-(tert-butyl)-N-(4-(2-((4-(4-((1-(3-((2,6-dioxopiperidin-3-yl)amino)benzoyl)azetidin-3-yl)methyl)piperazin-1-yl)phenyl)amino)pyrimidin-4-yl)-2-methylbenzyl)-1H-1,2,3-triazole-4-carboxamide]

BTK degradation (%) 1 nM: 43.0% | BTK degradation (%) 10 nM: 91.5% | BTK degradation (%) 100 nM: 97.0%
Structure (SMILES): Cc1cc(-c2ccnc(Nc3ccc(N4CCN(CC5CCN(c6ccc(N7CCC(=O)NC7=O)cc6F)CC5)CC4)cc3)n2)ccc1CNC(=O)c1cn(C(C)(C)C)nn1 [Example 73]

BTK degradation (%) 1 nM: 61.5% | BTK degradation (%) 10 nM: 94.5% | BTK degradation (%) 100 nM: 98.5%
Structure (SMILES): Cc1cc(-c2ccnc(Nc3ccc(N4CCN(CC5CN(c6ccc7c(c6)C(=O)N(C6CCC(=O)NC6=O)C7=O)C5)CC4)cc3)n2)ccc1CNC(=O)c1cnn(C(C)(C)C)c1 (stereo not drawn) [Example 31, 1-(tert-butyl)-N-(4-(2-((4-(4-((1-(2-(2,6-dioxopiperidin-3-yl)-1,3-dioxoisoindolin-5-yl)azetidin-3-yl)methyl)piperazin-1-yl)phenyl)amino)pyrimidin-4-yl)-2-methylbenzyl)-1H-pyrazole-4-carboxamide]

BTK degradation (%) 1 nM: 80.5% | BTK degradation (%) 10 nM: 98.0% | BTK degradation (%) 100 nM: 99.5%
Structure (SMILES): Cc1cc(-c2ccnc(Nc3ccc(N4CCN(CC5CCN(c6ccc(N7CCC(=O)NC7=O)cc6)CC5)CC4)cc3)n2)ccc1CNC(=O)c1cn(C(C)(C)C)nn1 [Example 71, 1-(tert-butyl)-N-(4-(2-((4-(4-((1-(4-(2,4-dioxotetrahydropyrimidin-1 (2H)-yl)phenyl)piperidin-4-yl)methyl)piperazin-1-yl)phenyl)amino)pyrimidin-4-yl)-2-methylbenzyl)-1H-1,2,3-triazole-4-carboxamide]
